From patent US9340590B2 (priority 2011, dated 2016) come the findings set out here.

Holding throughout (assay): cell-based
In one assay the target is hNav1.5 (Homo sapiens, UniProt Q14524). As to conditions: IonWorks Quattro, read-out: IWQ Use Nav1.5.
Another assay deals with hNav1.3 (Homo sapiens, UniProt Q9NY46). As to conditions: IonWorks Quattro, read-out: IWQ Use Nav1.3.
Another assay concerns the target hNav1.7 (Homo sapiens, UniProt Q15858). In kind it is cell-based. As to conditions: IonWorks Quattro, read-out: IWQ Use Nav1.7. A general note: In patch-clamp work, channel activity is measured electrically.
Setting [1] is: clamped to −110 mV, depolarized to −10 mV, 5 min after compound, n=2.

Where two headings read alike, the source gives them in different places. Positions of bridges follow the written chain, without caps; N, C: chain ends. Non-standard residues stand in square brackets, D forms with d. Residues, ends and D or L forms follow the SMILES beside them. NMeF = CN[C@@H](Cc1ccccc1)C(=O)O; Pra = C#CC[C@H](N)C(=O)O; Abu = CC[C@H](N)C(=O)O

hNav1.7, sequence (Q15858 whole entry, looked up): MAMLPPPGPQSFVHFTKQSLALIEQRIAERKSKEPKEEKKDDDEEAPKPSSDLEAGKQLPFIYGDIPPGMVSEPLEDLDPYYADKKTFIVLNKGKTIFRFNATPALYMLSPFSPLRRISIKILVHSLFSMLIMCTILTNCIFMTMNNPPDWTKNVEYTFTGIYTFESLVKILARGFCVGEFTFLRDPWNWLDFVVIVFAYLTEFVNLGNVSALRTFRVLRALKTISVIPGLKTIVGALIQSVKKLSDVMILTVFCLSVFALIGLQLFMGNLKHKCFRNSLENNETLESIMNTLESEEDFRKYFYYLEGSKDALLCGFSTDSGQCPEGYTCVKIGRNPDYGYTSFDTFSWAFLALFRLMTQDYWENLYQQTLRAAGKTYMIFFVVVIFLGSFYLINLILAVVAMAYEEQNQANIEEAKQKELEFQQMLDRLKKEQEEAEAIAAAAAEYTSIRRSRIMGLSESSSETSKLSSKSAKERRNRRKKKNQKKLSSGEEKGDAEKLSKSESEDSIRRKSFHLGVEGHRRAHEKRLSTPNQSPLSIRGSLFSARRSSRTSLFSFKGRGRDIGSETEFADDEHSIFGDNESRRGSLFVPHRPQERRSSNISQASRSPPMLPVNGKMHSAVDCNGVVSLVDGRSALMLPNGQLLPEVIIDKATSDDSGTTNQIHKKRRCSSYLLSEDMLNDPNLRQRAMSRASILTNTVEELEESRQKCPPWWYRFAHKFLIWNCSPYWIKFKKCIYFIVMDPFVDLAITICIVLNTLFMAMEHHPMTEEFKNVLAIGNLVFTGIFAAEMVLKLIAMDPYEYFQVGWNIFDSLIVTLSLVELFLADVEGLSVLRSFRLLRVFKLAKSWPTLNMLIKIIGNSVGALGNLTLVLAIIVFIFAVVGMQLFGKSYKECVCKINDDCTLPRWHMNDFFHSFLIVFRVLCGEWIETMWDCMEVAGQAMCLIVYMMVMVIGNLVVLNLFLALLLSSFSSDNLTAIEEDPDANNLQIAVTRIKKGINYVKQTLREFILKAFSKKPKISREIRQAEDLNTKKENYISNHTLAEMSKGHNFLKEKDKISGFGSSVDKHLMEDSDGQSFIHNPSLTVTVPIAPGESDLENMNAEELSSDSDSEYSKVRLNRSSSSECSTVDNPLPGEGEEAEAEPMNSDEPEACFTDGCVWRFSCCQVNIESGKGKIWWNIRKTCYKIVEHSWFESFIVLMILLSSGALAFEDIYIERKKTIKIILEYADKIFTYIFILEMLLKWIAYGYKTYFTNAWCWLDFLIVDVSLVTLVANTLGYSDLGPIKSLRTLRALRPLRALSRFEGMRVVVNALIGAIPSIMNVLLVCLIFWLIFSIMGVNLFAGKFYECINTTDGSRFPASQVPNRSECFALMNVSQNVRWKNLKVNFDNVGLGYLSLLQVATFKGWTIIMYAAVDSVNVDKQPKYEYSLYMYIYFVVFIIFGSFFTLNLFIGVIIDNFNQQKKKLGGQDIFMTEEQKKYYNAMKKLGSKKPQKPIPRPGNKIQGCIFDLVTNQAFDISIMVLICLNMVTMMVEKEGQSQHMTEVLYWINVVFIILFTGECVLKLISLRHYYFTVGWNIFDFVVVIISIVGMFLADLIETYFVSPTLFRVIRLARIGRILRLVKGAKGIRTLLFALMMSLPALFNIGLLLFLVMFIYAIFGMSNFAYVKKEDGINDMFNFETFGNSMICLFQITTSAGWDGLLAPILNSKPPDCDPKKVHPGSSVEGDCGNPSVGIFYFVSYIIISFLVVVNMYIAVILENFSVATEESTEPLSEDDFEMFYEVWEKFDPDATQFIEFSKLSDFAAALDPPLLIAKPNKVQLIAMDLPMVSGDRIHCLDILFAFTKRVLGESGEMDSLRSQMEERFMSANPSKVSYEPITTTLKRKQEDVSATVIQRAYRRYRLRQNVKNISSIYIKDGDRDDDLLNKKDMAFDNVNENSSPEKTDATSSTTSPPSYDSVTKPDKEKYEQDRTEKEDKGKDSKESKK
hNav1.3, sequence (Q9NY46 whole entry, looked up): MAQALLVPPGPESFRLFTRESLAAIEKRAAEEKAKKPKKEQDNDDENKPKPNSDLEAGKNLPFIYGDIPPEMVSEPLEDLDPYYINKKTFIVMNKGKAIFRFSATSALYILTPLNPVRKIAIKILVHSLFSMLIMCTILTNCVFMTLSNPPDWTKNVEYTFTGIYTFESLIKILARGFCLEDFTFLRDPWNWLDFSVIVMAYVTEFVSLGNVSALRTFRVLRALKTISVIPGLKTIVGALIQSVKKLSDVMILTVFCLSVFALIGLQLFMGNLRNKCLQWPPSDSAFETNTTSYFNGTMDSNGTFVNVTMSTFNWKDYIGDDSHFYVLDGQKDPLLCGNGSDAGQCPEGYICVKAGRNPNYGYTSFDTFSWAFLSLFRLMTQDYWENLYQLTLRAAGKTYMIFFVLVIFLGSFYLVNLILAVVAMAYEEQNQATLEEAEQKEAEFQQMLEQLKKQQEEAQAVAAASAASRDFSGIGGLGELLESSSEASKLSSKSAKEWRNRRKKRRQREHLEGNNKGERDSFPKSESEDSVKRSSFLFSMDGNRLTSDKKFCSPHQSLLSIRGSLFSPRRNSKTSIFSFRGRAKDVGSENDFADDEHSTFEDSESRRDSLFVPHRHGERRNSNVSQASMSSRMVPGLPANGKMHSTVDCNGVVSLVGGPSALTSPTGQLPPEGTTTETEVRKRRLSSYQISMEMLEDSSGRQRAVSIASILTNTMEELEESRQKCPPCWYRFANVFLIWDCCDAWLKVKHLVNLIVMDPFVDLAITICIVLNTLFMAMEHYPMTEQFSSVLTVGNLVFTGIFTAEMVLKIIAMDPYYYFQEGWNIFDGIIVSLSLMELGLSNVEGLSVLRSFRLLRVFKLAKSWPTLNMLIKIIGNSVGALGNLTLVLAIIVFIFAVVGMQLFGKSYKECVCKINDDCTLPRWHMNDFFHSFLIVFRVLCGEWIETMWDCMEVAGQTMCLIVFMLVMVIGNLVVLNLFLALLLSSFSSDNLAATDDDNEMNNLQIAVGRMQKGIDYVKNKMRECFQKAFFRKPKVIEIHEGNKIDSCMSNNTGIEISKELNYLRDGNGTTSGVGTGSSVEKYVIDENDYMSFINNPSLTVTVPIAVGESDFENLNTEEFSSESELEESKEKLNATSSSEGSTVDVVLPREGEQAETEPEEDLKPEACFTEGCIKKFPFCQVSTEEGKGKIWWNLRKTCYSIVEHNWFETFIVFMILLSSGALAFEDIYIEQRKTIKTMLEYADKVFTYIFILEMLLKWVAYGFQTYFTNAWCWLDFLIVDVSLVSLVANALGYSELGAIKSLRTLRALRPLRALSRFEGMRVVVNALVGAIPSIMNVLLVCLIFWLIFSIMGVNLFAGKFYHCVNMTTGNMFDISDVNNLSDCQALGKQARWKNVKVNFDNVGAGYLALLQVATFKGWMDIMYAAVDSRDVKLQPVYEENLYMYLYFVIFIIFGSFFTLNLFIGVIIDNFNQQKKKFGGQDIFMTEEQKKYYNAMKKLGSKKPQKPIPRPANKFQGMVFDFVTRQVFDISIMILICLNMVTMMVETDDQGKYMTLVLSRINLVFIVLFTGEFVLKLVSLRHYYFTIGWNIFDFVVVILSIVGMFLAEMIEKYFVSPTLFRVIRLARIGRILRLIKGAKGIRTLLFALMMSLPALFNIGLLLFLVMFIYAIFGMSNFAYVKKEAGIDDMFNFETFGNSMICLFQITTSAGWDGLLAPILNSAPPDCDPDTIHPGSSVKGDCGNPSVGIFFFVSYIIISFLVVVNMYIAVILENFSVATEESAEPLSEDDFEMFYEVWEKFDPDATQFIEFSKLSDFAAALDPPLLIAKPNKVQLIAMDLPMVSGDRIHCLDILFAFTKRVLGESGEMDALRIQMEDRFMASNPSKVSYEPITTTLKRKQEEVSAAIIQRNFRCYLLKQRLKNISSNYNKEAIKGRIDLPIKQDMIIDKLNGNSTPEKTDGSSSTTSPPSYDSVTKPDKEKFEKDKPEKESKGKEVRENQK

Take `CC[C@H](C)[C@@H]1NC(=O)[C@@H]2CSSC[C@@H]3NC(=O)[C@H](C(C)C)NC(=O)[C@H](CC(C)C)NC(=O)[C@H](CC(N)=O)NC(=O)[C@@H]4CCCN4C(=O)[C@H](CCCNC(=N)N)NC(=O)[C@H](CSSC[C@H](NC(=O)[C@@H](N)CC(=O)O)C(=O)N[C@@H](CC(C)C)C(=O)NCC(=O)N[C@@H](C)C(=O)N[C@@H](CCSC)C(=O)N[C@@H](CCCNC(=N)N)C(=O)N[C@@H](CCCCN)C(=O)N2)NC(=O)[C@H](CSSC[C@@H](C(=O)N[C@@H](CCCCN)C(=O)N[C@@H](Cc2ccc(O)cc2)C(=O)N[C@H](C(=O)N[C@@H](Cc2ccccc2)C(N)=O)C(C)C)NC(=O)[C@H](Cc2c[nH]c4ccccc24)NC(=O)[C@H](CO)NC(=O)[C@H](Cc2c[nH]cn2)NC(=O)[C@H]([C@@H](C)O)NC(=O)[C@H](CCCNC(=N)N)NC(=O)[C@H](CO)NC3=O)NC(=O)[C@H](CCCCN)NC(=O)[C@H](CC(=O)O)NC(=O)[C@H](CC(N)=O)NC(=O)[C@H](CC(=O)O)NC(=O)[C@@H]2CCCN2C1=O` [compound 738] (H-DCLGAMRKCIPDNDKCCRPNLVCSRTHSWCKYVF-NH2; disulfide 2-17, 9-23, 16-30): the IC50 was found to be 21900 nM on hNav1.5 (use-dependent block, hNav1.5); 1800 nM on hNav1.3 (use-dependent block, hNav1.3); 650 nM on hNav1.7 (use-dependent block, hNav1.7).
For `CC[C@H](C)[C@@H]1NC(=O)[C@@H]2CSSC[C@@H]3NC(=O)[C@H](C(C)C)NC(=O)[C@H](CC(C)C)NC(=O)[C@H](CC(N)=O)NC(=O)[C@@H]4CCCN4C(=O)[C@H](CCCNC(=N)N)NC(=O)[C@H](CSSC[C@H](NC(=O)[C@@H](N)CC(=O)O)C(=O)N[C@@H](CC(C)C)C(=O)NCC(=O)N[C@@H](Cc4ccccc4)C(=O)N[C@@H](CC(N)=O)C(=O)N[C@@H](CCCNC(=N)N)C(=O)N[C@@H](CCCCN)C(=O)N2)NC(=O)[C@H](CSSC[C@@H](C(=O)N[C@@H](CCCCN)C(=O)N[C@@H](Cc2ccc(O)cc2)C(=O)N[C@H](C(=O)N[C@@H](Cc2ccccc2)C(N)=O)C(C)C)NC(=O)[C@H](Cc2c[nH]c4ccccc24)NC(=O)[C@H](CCCCN)NC(=O)[C@H](Cc2c[nH]cn2)NC(=O)[C@H]([C@@H](C)O)NC(=O)[C@H](CCCNC(=N)N)NC(=O)[C@H](CO)NC3=O)NC(=O)[C@H](CCCCN)NC(=O)[C@H](CC(=O)O)NC(=O)[C@H](CC(N)=O)NC(=O)[C@H](CC(=O)O)NC(=O)[C@@H]2CCCN2C1=O` [SEQ ID NO: 278] (H-DCLGFNRKCIPDNDKCCRPNLVCSRTHKWCKYVF-NH2; disulfide 2-17, 9-23, 16-30), the IC50 on hNav1.5 (setting [1]) amounted to 10300 nM; at hNav1.3 (setting [1]), 6280 nM; at hNav1.7 (setting [1]), 6890 nM.
As to `C#CC[C@@H]1NC(=O)[C@H](CC(=O)O)NC(=O)[C@@H]2CCCN2C(=O)[C@H]([C@@H](C)CC)NC(=O)[C@@H]2CSSC[C@@H]3NC(=O)[C@H](C(C)C)NC(=O)[C@H](CC(C)C)NC(=O)[C@H](CC(N)=O)NC(=O)[C@@H]4CCCN4C(=O)[C@H](CCCNC(=N)N)NC(=O)[C@H](CSSC[C@H](NC(=O)[C@@H](N)CC(=O)O)C(=O)N[C@@H](CC(C)C)C(=O)NCC(=O)N[C@@H](CC)C(=O)N[C@@H](CC(C)C)C(=O)N[C@@H](CCCNC(=N)N)C(=O)N[C@@H](CCCCN)C(=O)N2)NC(=O)[C@H](CSSC[C@@H](C(=O)N[C@@H](CCCCN)C(=O)N[C@@H](Cc2ccc(O)cc2)C(=O)N[C@H](C(=O)N[C@@H](Cc2ccccc2)C(N)=O)C(C)C)NC(=O)[C@H](Cc2c[nH]c4ccccc24)NC(=O)[C@H](CCCCN)NC(=O)[C@H](Cc2c[nH]cn2)NC(=O)[C@H]([C@@H](C)O)NC(=O)[C@H](CCCNC(=N)N)NC(=O)[C@H](CO)NC3=O)NC(=O)[C@H](CCCCN)NC(=O)[C@H](CC(=O)O)NC1=O` [compound 797] (H-DCLG[Abu]LRKCIPD[Pra]DKCCRPNLVCSRTHKWCKYVF-NH2; disulfide 2-17, 9-23, 16-30), the IC50 was determined as 34000 nM at hNav1.5 (use-dependent block, hNav1.5); 930 nM at hNav1.3 (use-dependent block, hNav1.3); 520 nM at hNav1.7 (use-dependent block, hNav1.7).
For `CC[C@H](C)[C@@H]1NC(=O)[C@@H]2CSSC[C@@H]3NC(=O)[C@H](C(C)C)NC(=O)[C@H](CC(C)C)NC(=O)[C@H](CC(N)=O)NC(=O)[C@@H]4CCCN4C(=O)[C@H](CCCNC(=N)N)NC(=O)[C@H](CSSC[C@H](NC(=O)[C@@H](N)CC(=O)O)C(=O)N[C@@H](CC(C)C)C(=O)NCC(=O)N[C@@H](Cc4ccccc4)C(=O)N[C@@H](CCSC)C(=O)N[C@@H](CCCCN)C(=O)N[C@@H](CCCCN)C(=O)N2)NC(=O)[C@H](CSSC[C@@H](C(=O)N[C@@H](CCCCN)C(=O)N[C@@H](Cc2ccc(O)cc2)C(=O)N[C@H](C(=O)N[C@@H](Cc2ccccc2)C(N)=O)C(C)C)NC(=O)[C@H](Cc2c[nH]c4ccccc24)NC(=O)[C@H](CCCCN)NC(=O)[C@H](Cc2c[nH]cn2)NC(=O)[C@H]([C@@H](C)O)NC(=O)[C@H](CCCNC(=N)N)NC(=O)[C@H](CO)NC3=O)NC(=O)[C@H](CCCCN)NC(=O)[C@H](CC(=O)O)NC(=O)[C@H](CC(N)=O)NC(=O)[C@H](CC(=O)O)NC(=O)[C@@H]2CCCN2C1=O` [[Lys7]GpTx-1(1-34)] (H-DCLGFMKKCIPDNDKCCRPNLVCSRTHKWCKYVF-NH2; disulfide 2-17, 9-23, 16-30) the same measures were 23300 nM, 470 nM and 530 nM.
Regarding `CSCC[C@@H]1NC(=O)[C@H](C(C)C)NC(=O)CNC(=O)[C@H](CC(C)C)NC(=O)[C@@H](NC(=O)[C@@H](N)CC(=O)O)CSSC[C@@H]2NC(=O)[C@@H]3CSSC[C@@H](C(=O)N[C@@H](CCCCN)C(=O)N[C@@H](Cc4ccc(O)cc4)C(=O)N[C@H](C(=O)N[C@@H](Cc4ccccc4)C(N)=O)C(C)C)NC(=O)[C@H](Cc4c[nH]c5ccccc45)NC(=O)[C@H](CCCCN)NC(=O)[C@H](Cc4c[nH]cn4)NC(=O)[C@H]([C@@H](C)O)NC(=O)[C@H](CCCNC(=N)N)NC(=O)[C@H](CO)NC(=O)[C@H](CSSC[C@H](NC(=O)[C@H](CCCCN)NC(=O)[C@H](CCCNC(=N)N)NC1=O)C(=O)N[C@@H](CC(=O)O)C(=O)N1CCC[C@H]1C(=O)N[C@@H](CC(=O)O)C(=O)N[C@@H](CC(N)=O)C(=O)N[C@@H](CC(=O)O)C(=O)N[C@@H](CCCCN)C(=O)N3)NC(=O)[C@H](C(C)C)NC(=O)[C@H](CC(C)C)NC(=O)[C@H](CC(N)=O)NC(=O)[C@@H]1CCCN1C(=O)[C@H](CCCNC(=N)N)NC2=O` [compound 710] (H-DCLGVMRKCDPDNDKCCRPNLVCSRTHKWCKYVF-NH2; disulfide 2-17, 9-23, 16-30), the IC50 was determined as 35000 nM on hNav1.5 (use-dependent protocol, hNav1.5); 1300 nM on hNav1.3 (use-dependent protocol, hNav1.3); 690 nM at hNav1.7 (use-dependent protocol, hNav1.7).
In the case of `CC[C@H](C)[C@@H]1NC(=O)[C@@H]2CSSC[C@@H]3NC(=O)[C@H](C(C)C)NC(=O)[C@H](CC(C)C)NC(=O)[C@H](CC(N)=O)NC(=O)[C@@H]4CCCN4C(=O)[C@H](CCCNC(=N)N)NC(=O)[C@H](CSSC[C@H](NC(=O)[C@@H](N)CC(=O)O)C(=O)N[C@@H](CC(C)C)C(=O)NCC(=O)N[C@@H](C)C(=O)N[C@@H](CC[S+](C)[O-])C(=O)N[C@@H](CCCNC(=N)N)C(=O)N[C@@H](CCCCN)C(=O)N2)NC(=O)[C@H](CSSC[C@@H](C(=O)N[C@@H](CCCCN)C(=O)N[C@@H](Cc2ccc(O)cc2)C(=O)N[C@H](C(=O)N[C@@H](Cc2ccccc2)C(N)=O)C(C)C)NC(=O)[C@H](Cc2c[nH]c4ccccc24)NC(=O)[C@H](CCCCN)NC(=O)[C@H](Cc2c[nH]cn2)NC(=O)[C@H]([C@@H](C)O)NC(=O)[C@H](CCCNC(=N)N)NC(=O)[C@H](CO)NC3=O)NC(=O)[C@H](CCCCN)NC(=O)[C@H](CC(=O)O)NC(=O)[C@H](CC(N)=O)NC(=O)[C@H](CC(=O)O)NC(=O)[C@@H]2CCCN2C1=O` (single isomer, unassigned) [compound 791], the IC50 is 39500 nM on hNav1.5 (use-dependent block, hNav1.5); greater than 5000 nM on hNav1.3 (use-dependent block, hNav1.3); greater than 5000 nM on hNav1.7 (use-dependent block, hNav1.7).
Take `CC[C@H](C)[C@@H]1NC(=O)[C@@H]2CSSC[C@@H]3NC(=O)[C@H](C(C)C)NC(=O)[C@H](CC(C)C)NC(=O)[C@H](CC(N)=O)NC(=O)[C@@H]4CCCN4C(=O)[C@H](CCCNC(=N)N)NC(=O)[C@H](CSSC[C@H](NC(=O)[C@@H](N)CC(=O)O)C(=O)N[C@@H](CC(C)C)C(=O)NCC(=O)N[C@@H](Cc4ccccc4)C(=O)N[C@@H](CCSC)C(=O)N[C@@H](CCCNC(=N)N)C(=O)N[C@@H](CCCCN)C(=O)N2)NC(=O)[C@H](CSSC[C@@H](C(=O)N[C@@H](CCCCN)C(=O)N[C@@H](Cc2ccc(O)cc2)C(=O)N(C)[C@@H](Cc2ccccc2)C(=O)N[C@@H](Cc2ccccc2)C(N)=O)NC(=O)[C@H](Cc2c[nH]c4ccccc24)NC(=O)[C@H](CCCCN)NC(=O)[C@H](Cc2c[nH]cn2)NC(=O)[C@H]([C@@H](C)O)NC(=O)[C@H](CCCNC(=N)N)NC(=O)[C@H](CO)NC3=O)NC(=O)[C@H](CCCCN)NC(=O)[C@H](CC(=O)O)NC(=O)[C@H](CC(N)=O)NC(=O)[C@H](CC(=O)O)NC(=O)[C@@H]2CCCN2C1=O` [compound 388] (H-DCLGFMRKCIPDNDKCCRPNLVCSRTHKWCKY[NMeF]F-NH2; disulfide 2-17, 9-23, 16-30): the IC50 at hNav1.5 (Table 26, use, […]) is greater than 5000 nM; at hNav1.3 (Table 26, use, […]) it was 1090 nM; on hNav1.7 (Table 26, use, […]) it was 1280 nM.
